Columns and labels:
FD myopia [1] = test: FD myopia in guinea pigs, peribulbar injection of DHA, EPA or atropine; format: in vivo, guinea pig; conditions: 2 weeks; for reduction of myopia progression vs Vehicle group: high dose 3.0 μg/day
Description: (§1) The test animals were British tricolored short-haired guinea pigs aged 3 weeks. The animals were subjected to monocular form deprivation (FD) by a mask method and were randomly divided into 6 groups, which were treated by peribulbar injection with the following different substances: (1) ethanol solvent group (Vehicle); (2) low-dose DHA group (1.0 μg); (3) high-dose DHA group (3.0 μg): (4) low-dose EPA group (1.0 μg); (5) high-dose EPA group (3.0 μg); and (6) 0.1% atropine group.
The measurement methods of refraction, vitreous chamber depth and eye axis length were the same as those in Example 2.

[2] = Allergy study, periocular injection in FD animals; format: in vivo; conditions: high-purity DHA 3.0 μg or DHA 3.0 μg+EPA 3.0 μg, 100 μL daily periocular, 2 weeks
Description: Animals were randomly divided into three groups: FD+cod liver oil (commercially available ω-3 polyunsaturated fatty acids) group; FD+high-purity drug group 1 (FD+DHA 3.0 μg); and FD+high-purity drug group 2 (FD+“DHA 3.0 μg+EPA 3.0 μg”), and both high-purity drug groups were at a high dose.
After applying a topical anesthetic (one drop of 0.5% propazocaine hydrochloride, Alcon Laboratories, Inc., Puurs, Belgium), 100 μL of drug was daily administered at the surrounding area of FD eyeballs at 9:00 a.m., continuing for 2 weeks. All injections were completed within 10 seconds under dark red light to minimize any possible impact of red light on induced myopic recovery.

[3] = Safety test, peribulbar injection of DHA; format: in vivo, guinea pig; conditions: peribulbar DHA alone, up to 3 μg/day, vs Vehicle control
Description: as §1

FD myopia [4] = test: Optimal treatment scheme: peribulbar DHA/EPA formulations in young guinea pig models with FD myopia; format: in vivo; set-up: Vitreous chamber depth (difference between experimental eye and fellow eye): unit not given here; conditions: FD guinea pigs, total mass 3 μg; for Eye axis length (difference between experimental eye and fellow eye): in mm (unit assumed); for Myopia inhibition rate: 1 W vs Veh
Text: The optimal treatment protocol or scheme applying ω-3 by means by of feeding and peribulbar injection were investigated, respectively, and some critical findings were shown, especially when the eye was subjected to topical administration, unexpected results were obtained by using DHA alone or a composition of DHA and EPA. The basic experimental procedures were as described above.
However, as the content of EPA increases to become the predominant component (i.e., DHA:EPA<1:1), the efficacy of the mixture of DHA and EPA (the total mass of ocular topical administration is 3 μg in each case) is even better than that of DHA alone, EPA alone, or a mixture of DHA and EPA containing DHA as the main component (i.e., DHA:EPA>1:1, for example, […]) and is statistically significant (Table 1 and FIG. 12). It can be seen that the mixture of DHA and EPA that uses EPA as the predominant component or the predominant active ingredient has the optimal inhibition effect of myopia and myopia-related symptoms. Overall, all the treatment protocols in this example are very effective in inhibiting the negative refraction, eye axis elongation, and vitreous cavity depth increase.

SMILES	reduced myopia rate (positive control) (FD myopia [1]; 0.1% atropine)	adverse reactions such as allergies [2]	reduction of myopia progression vs Vehicle group (FD myopia [1])	ACD (anterior chamber depth) [3]	LT (lens thickness) [3]	body weight [3]	Refraction (difference between experimental eye and fellow eye) (FD myopia [4]; 0 W)	Vitreous chamber depth (difference between experimental eye and fellow eye) (FD myopia [4]; 0 W)	Eye axis length (difference between experimental eye and fellow eye) (FD myopia [4]; 0 W)	Myopia inhibition rate (FD myopia [4])	Refraction (difference between experimental eye and fellow eye) (FD myopia [4]; 1 W)	Vitreous chamber depth (difference between experimental eye and fellow eye) (FD myopia [4]; 1 W)	Eye axis length (difference between experimental eye and fellow eye) (FD myopia [4]; 1 W)
CN1[C@@H]2CC[C@H]1C[C@@H](OC(=O)C(CO)c1ccccc1)C2 (stereo partly drawn) [Atropine, atropine, reference compound]	35.6%												
CC/C=C\C/C=C\C/C=C\C/C=C\C/C=C\C/C=C\CCC(=O)O [DHA, docosahexaenoic acid]		no adverse reactions such as allergies	35.3%	no significant ocular differences	no significant ocular differences	no significant ocular differences	−0.23	0.00	−0.01	31.8%	−2.95	0.06	0.06
CC/C=C\C/C=C\C/C=C\C/C=C\C/C=C\CCCC(=O)O [EPA, eicosapentaenoic acid]			29.6%				−0.40	0.00	0.01	21.0%	−3.42	0.07	0.07

Source: patent publication US20230321023A1, “APPLICATION OF REGULATION OF EYE SCLERA LIPID METABOLISM TO INHIBIT MYOPIA” (Wenzhou Medical University, priority 2020, published 2023)
